Test results: patent US9675070B2 (BAYER CROPSCIENCE AG, priority 2013, dated 2017)

Assays:
[1] = tested on: greenhouse red spider mite (Tetranychus urticae), OP-resistant; assay: Tetranychus urticae spray test, OP-resistant (TETRUR); format: in vivo; conditions: application rate 100 g/ha; bean leaf discs; after 6 days
Method: Tetranychus urticae—Spray Test, OP-Resistant (TETRUR)
(§1) Solvents: 78.0 parts by weight of acetone
(§2) • 1.5 parts by weight of dimethylformamide Emulsifier: alkylaryl polyglycol ether
(§3) To produce a suitable preparation of active compound, 1 part by weight of active compound is dissolved using the stated parts by weight of solvent and made up with water comprising an emulsifier concentration of 1000 ppm until the desired concentration is reached. To produce further test concentrations, the preparation is diluted with emulsifier-containing water.
Discs of bean leaves (Phaseolus vulgaris) which are infested by all stages of the greenhouse red spider mite (Tetranychus urticae) are sprayed with an active compound preparation of the desired concentration.
After 6 days, the efficacy in % is determined. 100% means that all of the spider mites have been killed; 0% means that none of the spider mites have been killed.

[2] = tested on: green peach aphid (Myzus persicae); assay: Myzus persicae spray test (MYZUPE); format: in vivo; conditions: application rate 100 g/ha; Chinese cabbage leaf discs; after 6 days
Method: Myzus persicae—spray test (MYZUPE)
Solvents: 78 parts by weight of acetone
as §2, §3
Discs of Chinese cabbage leaves (Brassica pekinensis) infested by all stages of the green peach aphid (Myzus persicae) are sprayed with an active compound preparation of the desired concentration.
After 6 days, the efficacy in % is determined. 100% here means that all of the aphids have been killed; 0% means that no aphids have been killed.

[3] = tested on: caterpillars of the armyworm (Spodoptera frugiperda); assay: Spodoptera frugiperda spray test (SPODFR); format: in vivo; conditions: application rate 100 g/ha; maize leaf discs; after 7 days
Method: Spodoptera frugiperda—Spray Test (SPODFR)
as §1, §2, §3
Leaf discs of maize (Zea mays) are sprayed with an active compound preparation of the desired concentration and, after drying, populated with caterpillars of the armyworm (Spodoptera frugiperda).
After 7 days, the efficacy in % is determined. 100% means that all of the caterpillars have been killed; 0% means that none of the caterpillars have been killed.

[4] = tested on: larvae of the mustard beetle (Phaedon cochleariae); assay: Phaedon cochleariae spray test (PHAECO); format: in vivo; conditions: application rate 100 g/ha; Chinese cabbage leaf discs; after 7 days
Method: Phaedon cochleariae—Spray Test (PHAECO)
as §1, §2, §3
After 7 days, the efficacy in % is determined. 100% means that all of the beetle larvae have been killed; 0% means that none of the beetle larvae have been killed.

[5] = tested on: L1 larvae of the Australian sheep blowfly (Lucilia cuprina); assay: Lucilia cuprina test (LUCICU); format: in vivo; conditions: application rate 100 ppm; minced horsemeat; after 2 days
Method: Lucilia cuprina Test (LUCICU) Solvent: dimethyl sulphoxide To produce a suitable preparation of active compound, 10 mg of active compound are mixed with 0.5 ml of dimethyl sulphoxide, and the concentrate is diluted with water to the desired concentration. About 20 L1 larvae of the Australian sheep blowfly (Lucilia cuprina) are transferred into a test vessel containing minced horsemeat and the active compound preparation of the desired concentration. After 2 days, the kill in % is determined. 100% means that all of the larvae have been killed; 0% means that none of the larvae have been killed.

[6] = tested on: cattle ticks (Boophilus microplus) Parkhurst strain, SP-resistant; assay: Boophilus microplus dip test (BOOPMI Dip); format: in vivo; conditions: application rate 100 ppm, assessed after 7 days
Method: Boophilus microplus—Dip Test (BOOPMI Dip)
Test animals: cattle ticks (Boophilus microplus) Parkhurst strain, SP-resistant
(§4) Solvent: dimethyl sulphoxide
10 mg of active compound are dissolved in 0.5 ml of dimethyl sulphoxide. To prepare a suitable formulation, the active compound solution is diluted with water to the concentration desired in each case.
This active compound preparation is pipetted into tubes. 8-10 adult engorged female cattle ticks (Boophilus microplus) are transferred into a further tube with holes. The tube is immersed into the active compound formulation, and all ticks are completely wetted. After the liquid has run out, the ticks are transferred on filter discs into plastic dishes and stored in a climate-controlled room.
(§5) The activity is assessed after 7 days by laying of fertile eggs. Eggs whose fertility is not visible from the outside are stored in a climate-controlled cabinet until the larvae hatch after about 42 days. An efficacy of 100% means that none of the ticks has laid any fertile eggs; 0% means that all eggs are fertile.

[7] = tested on: adult cat fleas (Ctenocephalides felis); assay: Ctenocephalides felis oral test (CTECFE); format: in vivo; conditions: application rate 100 ppm in citrated cattle blood; after 2 days
Method: Ctenocephalides felis-Oral Test ([…]) Solvent: dimethyl sulphoxide To produce a suitable preparation of active compound, 10 mg of active compound are mixed with 0.5 ml of dimethyl sulphoxide. Dilution with citrated cattle blood gives the desired concentration. About 20 unfed adult cat fleas (Ctenocephalides felis) are placed into a chamber which is closed at the top and bottom with gauze. A metal cylinder whose bottom end is closed with a parafilm is placed onto the chamber. The cylinder contains the blood/active ingredient preparation, which can be imbibed by the fleas through the parafilm membrane. After 2 days, the kill in % is determined. 100% means that all of the fleas have been killed; 0% means that none of the fleas have been killed.

[8] = tested on: Tick nymphs (Amblyomma hebraeum); assay: Amblyomma hebaraeum test (AMBYHE), tick nymph immersion; format: in vivo; conditions: application rate 100 ppm; immersion one minute; after 42 days
Method: Amblyomma hebaraeum Test (AMBYHE) Solvent: dimethyl sulphoxide To produce a suitable preparation of active compound, 10 mg of active compound are mixed with 0.5 ml of dimethyl sulphoxide, and the concentrate is diluted with water to the desired concentration. Tick nymphs (Amblyomma hebraeum) are placed into perforated plastic beakers and immersed in the desired concentration for one minute. The ticks are transferred on filter paper into a Petri dish and stored in a climate-controlled cabinet. After 42 days, the kill in % is determined. 100% means that all of the ticks have been killed; 0% means that none of the ticks have been killed.

[9] = tested on: adult houseflies (Musca domestica); assay: Musca domestica test (MUSCDO); format: in vivo; conditions: application rate 100 ppm; after 2 days
Method: Musca domestica Test (MUSCDO) Solvents: dimethyl sulphoxide To produce a suitable preparation of active compound, 10 mg of active compound are mixed with 0.5 ml of dimethyl sulphoxide, and the concentrate is diluted with water to the desired concentration. Vessels containing a sponge treated with sugar solution and the active compound preparation of the desired concentration are populated with 10 adult houseflies (Musca domestica). After 2 days, the kill in % is determined. 100% means that all of the flies have been killed; 0% means that none of the flies have been killed.

[10] = tested on: engorged adult female cattle ticks (Boophilus microplus); assay: Boophilus microplus injection test (BOOPMI Inj); format: in vivo; conditions: application rate 20 μg/animal; injection into abdomen; assessed after 7 days
Method: Boophilus microplus Injection Test (BOOPMI Inj)
as §4
To produce a suitable preparation of active compound, 10 mg of active compound are mixed with 0.5 ml of solvent, and the concentrate is diluted with solvent to the desired concentration.
1 μl of the active compound solution is injected into the abdomen of 5 engorged adult female cattle ticks (Boophilus microplus). The animals are transferred into dishes and kept in a climate-controlled room.
as §5

[11] = tested on: southern root-knot nematode (Meloidogyne incognita); assay: Meloidogyne incognita test (MELGIN); format: in vivo; conditions: application rate 20 ppm; lettuce; after 14 days
Method: Meloidogyne incognita Test (MELGIN) Solvent: 125.0 parts by weight of acetone To prepare a suitable active compound preparation, 1 part by weight of active compound is mixed with the stated amount of solvent and the concentrate is diluted with water to the desired concentration. Vessels are filled with sand, active compound solution, an egg/larvae suspension of the southern root-knot nematode (Meloidogyne incognita) and lettuce seeds. The lettuce seeds germinate and the plants develop. On the roots, galls are formed. After 14 days, the nematicidal efficacy in % is determined by the formation of galls. 100% means that no galls have been found; 0% means that the number of galls on the treated plants corresponds to the untreated control.

[12] = log P determination by HPLC on reversed-phase column (C18), EEC Directive 79/831 Annex V.A8; format: physicochemical; conditions: method a): Agilent 1100 LC, Zorbax Eclipse Plus C18, acetonitrile/water with formic acid, gradient 10-95% in 4.25 min, 55° C.
Method: Agilent 1100 LC system; 50*4.6 Zorbax Eclipse Plus C18 1.8 micron; mobile phase A: acetonitrile (0.1% formic acid); mobile phase B: water (0.09% formic acid); linear gradient from 10% acetonitrile to 95% acetonitrile in 4.25 min, then 95% acetonitrile for a further 1.25 min; oven temperature 55° C.; flow rate: 2.0 ml/min. Mass detection is carried out via an Agilend MSD system.
^a)Unless indicated otherwise, the following method was used to determine the log P values and masses: The determination of the given log P values was carried out in accordance with EEC Directive 79/831 Annex V.A8 by HPLC (High Performance Liquid Chromatography) on a reversed-phase column (C18). Agilent 1100 LC system; 50*4.6 Zorbax Eclipse Plus C18 1.8 micron; mobile phase A: acetonitrile (0.1% formic acid); mobile phase B: water (0.09% formic acid); linear gradient from 10% acetonitrile to 95% acetonitrile in 4.25 min, then 95% acetonitrile for a further 1.25 min; oven temperature 55° C.; flow rate: 2.0 ml/min. Mass detection is carried out via an Agilend MSD system. ^b)Note for the alternative method for determining log P values and masses: The stated log P values were determined in accordance with EEC Directive 79/831 Annex V.A8 by HPLC (High Performance Liquid Chromatography) using a reversed-phase column (C18). Waters ACQUITY UPLC-MS system; 2.1*50 mm Zorbax Eclipse Plus C18 1.8 μm 600 bar; injection volume: 0.5 ul about 1000 ppm; mobile phase A: acetonitrile (0.1% formic acid); mobile phase B: water (0.085% formic acid); linear gradient from 10% acetonitrile to 95% acetonitrile in 1.5 min, then 95% acetonitrile for a further 0.5 min; oven temperature 60° C.; flow rate: 1.0 ml/min. Mass detection is carried out via a Waters SQD system.

## CC(F)C(=O)NCc1cc(-c2cnn(-c3c(C(F)(F)F)c(C(F)(F)C(F)(F)F)nn3C)c2)ccc1F (racemic) [Ic-22]
[1]
  efficacy in %: 100%
[2]
  efficacy in %: 90%
[3]
  efficacy in %: 83%
[4]
  efficacy in %: 100%

## CCC(=O)NCc1cc(-c2cnn(-c3c(C(F)(F)F)c(C(F)(F)C(F)(F)F)nn3C)c2)ccc1F [Ic-2]
[5]
  kill in %: 100%
[6]
  efficacy (no laying of fertile eggs): 100%
[7]
  kill in %: 100%
[8]
  kill in %: 100%
[1]
  efficacy in %: 100%
[9]
  kill in %: 100%
[10]
  efficacy (no laying of fertile eggs): 100%
[3]
  efficacy in %: 100%
[4]
  efficacy in %: 100%

## CC(=O)NCc1cc(-c2cnn(-c3c(C(F)(F)F)c(C(F)(F)C(F)(F)F)nn3C)c2)ccc1F [Ic-4]
[5]
  kill in %: 100%
[6]
  efficacy (no laying of fertile eggs): 100%
[7]
  kill in %: 100%
[8]
  kill in %: 100%
[1]
  efficacy in %: 100%
[9]
  kill in %: 100%
[10]
  efficacy (no laying of fertile eggs): 100%
[3]
  efficacy in %: 83%
[4]
  efficacy in %: 100%

## Cn1nc(C(F)(F)C(F)(F)F)c(C(F)(F)F)c1-n1cc(-c2ccc(F)c(CNC(=O)Cc3cccs3)c2)cn1 [Ic-7]
[5]
  kill in %: 100%
[7]
  kill in %: 90%
[1]
  efficacy in %: 100%
[11]
  nematicidal efficacy in % (formation of galls): 90%
[10]
  efficacy (no laying of fertile eggs): 100%
[3]
  efficacy in %: 83%
[4]
  efficacy in %: 100%

## CC(=O)NCc1cncc(-c2cnn(-c3c(C(F)(F)F)c(C(F)(F)C(F)(F)F)nn3C)c2)c1 [Ic-8]
[1]
  efficacy in %: 90%
[2]
  efficacy in %: 90%
[4]
  efficacy in %: 100%

## Cn1nc(C(F)(F)C(F)(F)F)c(C(F)(F)F)c1-n1cc(-c2ccc(F)c(CNC(=O)C3CC3)c2)cn1 [Ic-12]
[5]
  kill in %: 100%
[7]
  kill in %: 100%
[8]
  kill in %: 100%
[1]
  efficacy in %: 90%
[9]
  kill in %: 100%
[10]
  efficacy (no laying of fertile eggs): 100%
[3]
  efficacy in %: 100%
[4]
  efficacy in %: 100%

## CC(=O)NCc1cccc(-c2cnn(-c3c(C(F)(F)F)c(C(F)(F)C(F)(F)F)nn3C)c2)c1 [Ic-16]
[5]
  kill in %: 100%
[6]
  efficacy (no laying of fertile eggs): 100%
[7]
  kill in %: 100%
[8]
  kill in %: 100%
[1]
  efficacy in %: 90%
[9]
  kill in %: 100%
[10]
  efficacy (no laying of fertile eggs): 100%
[4]
  efficacy in %: 100%

## Cn1nc(C(F)(F)C(F)(F)F)c(C(F)(F)F)c1-n1cc(-c2cccc(CNC(=O)C3CC3)c2)cn1 [Ic-17]
[5]
  kill in %: 100%
[6]
  efficacy (no laying of fertile eggs): 100%
[7]
  kill in %: 100%
[8]
  kill in %: 90%
[1]
  efficacy in %: 100%
[9]
  kill in %: 100%
[10]
  efficacy (no laying of fertile eggs): 100%
[4]
  efficacy in %: 100%

## Cn1nc(C(F)(F)C(F)(F)F)c(C(F)(F)F)c1-n1cc(-c2cccc(CNC(=O)OC(C)(C)C)c2)cn1 [Ic-18, tert-butyl {3-[2′-methyl-5′-(pentafluoroethyl)-4′-(trifluoromethyl)-2′H-1,3′-bipyrazol-4-yl]benzyl}carbamate]
[12]
  chromatographic logP: 4.74
[2]
  efficacy in %: 100%
[10]
  efficacy (no laying of fertile eggs): 100%

## Cn1nc(C(F)(F)C(F)(F)F)c(C(F)(F)F)c1-n1cc(-c2ccc(F)c(CNC(=O)c3ccsc3)c2)cn1 [Ic-23]
[5]
  kill in %: 95%
[11]
  nematicidal efficacy in % (formation of galls): 90%
[10]
  efficacy (no laying of fertile eggs): 100%
[4]
  efficacy in %: 100%

## CCC(=O)NCc1cncc(-c2cnn(-c3c(C(F)(F)F)c(C(F)(F)C(F)(F)F)nn3C)c2)c1 [Ic-26]
[1]
  efficacy in %: 90%
[2]
  efficacy in %: 100%
[3]
  efficacy in %: 83%
[4]
  efficacy in %: 100%

## CCC(=O)NC(C)c1cccc(-c2cnn(-c3c(C(F)(F)F)c(C(F)(F)C(F)(F)F)nn3C)c2)c1 (centres unmarked) [Ic-33]
[1]
  efficacy in %: 100%
[2]
  efficacy in %: 90%
[4]
  efficacy in %: 100%

## CCC(=O)NCc1cccc(-c2ncn(-c3c(C(F)(F)F)c(C(F)(F)C(F)(F)F)nn3C)n2)c1 [Ie-1]
[11]
  nematicidal efficacy in % (formation of galls): 90%
